# Results as given in patent US20210070735A1, “RIP1 INHIBITORY COMPOUNDS AND METHODS FOR MAKING AND USING THE SAME” (Rigel Pharmaceuticals, Inc., priority 2019, published 2021).
# Key:
# [1] = molecular target: T1, human RIP1 (Homo sapiens, UniProt Q13546); experiment: U937 cell necroptosis assay (TNFa + zVAD, CellTiter-Glo); assay type: cell-based; details: U937 Zvad TNF CTG Recovery, U937 cells, TNFa 2 ng/mL + zVAD-fmk, 18 hours
# T1 construct: U937 and L929 cells were obtained from the American Type Culture Collection; host or cells: U937
# T1 sequence (Q13546 1-671): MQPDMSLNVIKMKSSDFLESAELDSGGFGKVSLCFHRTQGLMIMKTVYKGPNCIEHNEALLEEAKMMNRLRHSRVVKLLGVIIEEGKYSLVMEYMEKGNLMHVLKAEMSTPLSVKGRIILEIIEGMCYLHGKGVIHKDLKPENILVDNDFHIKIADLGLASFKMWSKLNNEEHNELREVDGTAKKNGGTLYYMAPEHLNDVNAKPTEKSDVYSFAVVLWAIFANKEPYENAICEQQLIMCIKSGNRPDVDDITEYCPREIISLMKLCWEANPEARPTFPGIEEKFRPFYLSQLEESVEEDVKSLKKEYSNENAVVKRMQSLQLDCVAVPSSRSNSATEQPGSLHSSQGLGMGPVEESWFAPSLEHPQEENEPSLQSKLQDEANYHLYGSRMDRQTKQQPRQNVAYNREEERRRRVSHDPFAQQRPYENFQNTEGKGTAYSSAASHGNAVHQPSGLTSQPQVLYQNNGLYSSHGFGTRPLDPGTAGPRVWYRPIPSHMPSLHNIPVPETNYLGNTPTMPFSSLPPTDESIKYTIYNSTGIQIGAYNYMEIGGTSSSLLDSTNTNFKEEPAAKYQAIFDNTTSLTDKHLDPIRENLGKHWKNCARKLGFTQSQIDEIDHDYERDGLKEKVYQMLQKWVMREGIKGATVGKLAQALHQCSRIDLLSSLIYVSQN
# Description: (§1) In this example, U937 and L929 cells were exposed to compounds of the present disclosure and a cell necroptosis assay was conducted to evaluate the compounds' activity against human RIP1 and murine RIP1.
# (§2) U937 and L929 cells were obtained from the American Type Culture Collection (Manassa, Va., USA). Both cells were maintained in logarithmic growth phase in complete RPMI 1640 media (Sigma, ST Louis, Mo., USA) supplemented with 10% fetal bovine serum (Sigma, ST Louis, Mo., USA) at 37° C. with 5% CO2. For necroptosis assay, L929 cells were plated for 18 h in 100 µL/well medium at 10K cells/well in Costar 96-well black clear-bottom plates (Fisher Scientific, Hampton, N.H., USA); U937 cells were plated on the day of the assay in 50 µL/well medium containing 60 uM zVAD-fmk (Lonza, Basel, Switzerland) at 50K cells/well. Medium from L929 cells were removed from the 96-well plates and replaced with 50 µL/well new medium containing 40 uM zVAD-fmk. Each compound of the present disclosure evaluated in this example was serially diluted in DMSO from 2.5 mM in 4-fold dilutions, and then diluted 1:125 in complete medium. 50 µL/well 2× of the compound was then added to the cells in the plates. The cells were pre-incubated with the compound for 1 hour at 37° C. with 5% CO2 and before addition of 10 µL/well 11×TNFa (Peprotech, Rocky Hill, N.J., USA) to give a final concentration of 2 ng/mL for TNFa. The relative amount of necroptosis cells was determined by luminescent using a Wallac Victor2 Luminometer (PerkinElmer, Waltham, Mass., USA) and a CellTiter-Glo® Luminescent Cell Viability Reagent Assay (Promega, Madison, Wis., USA) added per manufacturer instructions after 18 hours of TNFa stimulation at 37° C. with 5% CO2.Results from this example are summarized in Table 2. This example establishes that embodiments of the compounds described herein have unexpectedly potent activity against human RIP1 and murine RIP1, which allows their assessment in in vivo mouse models of disease.
# [2] = molecular target: T2, RIPK1 (Homo sapiens, UniProt Q13546); experiment: RIPK1 ADP-Glo biochemical kinase assay; details: 30 min at 30° C.
# T2 sequence (Q13546 1-671): T1 sequence (Q13546 1-671)
# Description: The final reaction volume was 5.0 μl.
# Adding 5 μl of ADP-Glo™ terminated the reaction.
# [3] = molecular target: T3, murine RIP1 (Mus musculus, UniProt Q60855); experiment: L929 cell necroptosis assay (TNFa + zVAD, CellTiter-Glo); assay type: cell-based
# T3 construct: U937 and L929 cells were obtained from the American Type Culture Collection; host or cells: L929
# T3 sequence (Q60855 1-656): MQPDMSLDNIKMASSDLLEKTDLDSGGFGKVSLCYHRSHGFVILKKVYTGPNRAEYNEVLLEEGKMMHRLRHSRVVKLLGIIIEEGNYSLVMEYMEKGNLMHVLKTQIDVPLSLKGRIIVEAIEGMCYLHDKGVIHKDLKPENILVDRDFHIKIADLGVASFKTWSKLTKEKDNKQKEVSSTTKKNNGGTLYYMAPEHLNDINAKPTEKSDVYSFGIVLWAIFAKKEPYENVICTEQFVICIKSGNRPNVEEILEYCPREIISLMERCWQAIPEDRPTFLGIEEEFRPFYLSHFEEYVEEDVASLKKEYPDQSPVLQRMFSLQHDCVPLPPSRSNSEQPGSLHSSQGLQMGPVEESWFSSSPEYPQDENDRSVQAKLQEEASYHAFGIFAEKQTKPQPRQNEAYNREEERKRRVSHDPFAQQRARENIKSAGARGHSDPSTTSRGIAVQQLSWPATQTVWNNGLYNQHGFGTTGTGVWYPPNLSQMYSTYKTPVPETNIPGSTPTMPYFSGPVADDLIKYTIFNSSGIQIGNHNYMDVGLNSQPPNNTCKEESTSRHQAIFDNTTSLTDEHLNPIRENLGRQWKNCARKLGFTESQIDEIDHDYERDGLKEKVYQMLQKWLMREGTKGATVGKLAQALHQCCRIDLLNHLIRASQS
# Description: as §1, §2
Structure (SMILES),IC50 [1],IC50 [2],IC50 [3]
"CN1C(=O)C(NC(=O)n2cc(Cc3ccccc3)cn2)CCc2ccc(N3CC4(CCOCC4)C3)cc21 (racemic) [Compound I-23, (±)-4-Benzyl-N-(1-methyl-2-oxo-8-(7-oxa-2-azaspiro[3.5]nonan-2-yl)-2,3,4,5-tetrahydro-1H-benzo[b]azepin-3-yl)-1H-pyrazole-1-carboxamide]",0.0017 µM,0.0612 µM,0.212 µM
"CN1C(=O)[C@@H](NC(=O)c2ccn(Cc3ccccc3)n2)CCc2ccc(C#CC(C)(C)C)cc21 [Compound I-33, (S)-1-Benzyl-N-(8-(3,3-dimethylbut-1-yn-1-yl)-1-methyl-2-oxo-2,3,4,5-tetrahydro-1H-benzo[b]azepin-3-yl)-1H-pyrazole-3-carboxamide]",0.0076 µM,0.0546 µM,0.03 µM
"CN1C(=O)[C@@H](NC(=O)c2n[nH]c(Cc3ccccc3)n2)CCc2ccc(C#CC(C)(C)O)cc21 [Compound I-10, (S)-5-Benzyl-N-(8-(3-hydroxy-3-methylbut-1-yn-1-yl)-1-methyl-2-oxo-2,3,4,5-tetrahydro-1H-benzo[b]azepin-3-yl)-1H-1,2,4-triazole-3-carboxamide]",0.0017 µM,0.0392 µM,0.0378 µM
"CN1C(=O)[C@@H](NC(=O)c2n[nH]c(Cc3ccccc3)n2)CCc2ccc(C#Cc3cccnc3)cc21 [Compound I-18, (S)-5-Benzyl-N-(1-methyl-2-oxo-8-(pyridin-3-ylethynyl)-2,3,4,5-tetrahydro-1H-benzo[b]azepin-3-yl)-1H-1,2,4-triazole-3-carboxamide]",0.0032 µM,0.0234 µM,0.0059 µM
"CN1C(=O)C(NC(=O)c2cc(Oc3ccccc3)ccn2)CCc2ccc(CN3CCN(c4ccncc4)CC3)cc21 (racemic) [Compound I-25, (±)-N-(1-Methyl-2-oxo-8-((4-(pyridin-4-yl)piperazin-1-yl)methyl)-2,3,4,5-tetrahydro-1H-benzo[b]azepin-3-yl)-4-phenoxypicolinamide]",0.278 µM,0.0689 µM,37.1 µM
"CN1C(=O)[C@@H](NC(=O)n2cc(Cc3ccc(F)cc3)cn2)CCc2ccc(C#CC3(O)COC3)cc21 [Compound I-1, (S)-4-(4-fluorobenzyl)-N-(8-((3-hydroxyoxetan-3-yl)ethynyl)-1-methyl-2-oxo-2,3,4,5-tetrahydro-1H-benzo[b]azepin-3-yl)-1H-pyrazole-1-carboxamide]",0.0003 µM,0.0234 µM,0.0024 µM
"CN1C(=O)C(NC(=O)c2cc(Oc3ccccc3)ccn2)CCc2ccc(N3CC4(CCOCC4)C3)cc21 (racemic) [Compound I-31, (±)-N-(1-Methyl-2-oxo-8-(7-oxa-2-azaspiro[3.5]nonan-2-yl)-2,3,4,5-tetrahydro-1H-benzo[b]azepin-3-yl)-4-phenoxypicolinamide]",0.0176 µM,0.054 µM,1.68 µM
"CC(C)(O)C#Cc1ccc2c(c1)NC(=O)[C@@H](NC(=O)c1cc(Oc3ccc(F)cc3)ccn1)CC2 [Compound I-35, (S)-4-(4-Fluorophenoxy)-N-(8-(3-hydroxy-3-methylbut-1-yn-1-yl)-2-oxo-2,3,4,5-tetrahydro-1H-benzo[b]azepin-3-yl)picolinamide]",0.552 µM,0.073 µM,1.79 µM
"[2H]C([2H])([2H])N1C(=O)C(NC(=O)c2cc(Oc3ccccc3)ccn2)CCc2ccc(N3CC4(CCOCC4)C3)cc21 (racemic) [Compound I-29, (±)-N-(1-(Methyl-d3)-2-oxo-8-(7-oxa-2-azaspiro[3.5]nonan-2-yl)-2,3,4,5-tetrahydro-1H-benzo[b]azepin-3-yl)-4-phenoxypicolinamide]",0.0063 µM,0.0413 µM,1.42 µM
